From patent US9499550B2 (BRISTOL-MYERS SQUIBB COMPANY, priority 2012, dated 2016) come the findings set out here.

One may read the EC50 as the concentration at which the effect is half-maximal.

For experiment [1], the system named is HCV genotype 1b (Con1) replicon in HUH-7 cells. As to the kind of experiment: HCV replicon luciferase reporter assay, genotype 1b. It is filed as cell-based. As to conditions: Hepatitis C virus, Huh-7, 72 h, HCV genotype 1b replicon luciferase assay, 3 days incubation, range class, read-out: LE_1b (EC50, range). The gist of the method: (§1)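 Replicon inhibition for both genotypes was measured as Renilla luciferase signal (EnduRen, 7.5 μM final, 2 h) after 3-day, 37° C exposure of replicon-bearing HUH-7 cells in 4% FCS DMEM, 0.5% DMSO. The 1b construct carries S1179I; the 1a H77 construct carries P1496L and S2204I. Twenty-point, 3-fold dilutions were fitted four-parametrically for EC50, and CC50 was taken from multiplexed Cell Titer-Blue.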

Experiment [2] has as its system HCV genotype 1a (H77 strain) replicon in HUH-7 cells. As to the kind of experiment: HCV replicon luciferase reporter assay, genotype 1a. Type of experiment: cell-based. The conditions noted are these: Hepatitis C virus, Huh-7, 72 h, HCV genotype 1a replicon luciferase assay, 3 days incubation, range class, read-out: LE_1a (EC50, range). The gist of the method: as §1
In general terms: A replicon is a self-replicating genome or part of one, used to study replication in cells.

Some results are limits rather than exact numbers.

As to `COc1ccc2c(O[C@@H]3C[C@H]4C(=O)N[C@]5(C(=O)NS(=O)(=O)C6(C)CC6)C[C@H]5/C=C\CC[C@H](C)C[C@@H](C)[C@H](NC(=O)OC(C)(C)C(F)(F)F)C(=O)N4C3)nc(OC)cc2c1` [Compound 1132, 1,1,1-trifluoro-2-methylpropan-2-yl((2R,6S,7R,9S,13aS,14aR,16aS,Z)-2-((3,6-dimethoxyisoquinolin-1-yl)oxy)-7,9-dimethyl-14a-(((1-methylcyclopropyl)sulfonyl)carbamoyl)-5,16-dioxo-1,2,3,5,6,7,8,9,10,11,13a,14,14a,15,16,16a-hexadecahydrocyclopropa[e]pyrrolo[1,2-a][1,4]diazacyclopentadecin-6-yl)carbamate], the EC50 in experiment [1] and in experiment [2] was < 5.46 nM each time.

As for `COc1ccc2c(O[C@@H]3C[C@H]4C(=O)N[C@]5(C(=O)NS(=O)(=O)C6(C)CC6)C[C@H]5/C=C\CC[C@@H](C)C[C@@H](C)[C@H](NC(=O)OC(C)(C)C(F)(F)F)C(=O)N4C3)nc(OC)cc2c1` [Compound 1133, 1,1,1-trifluoro-2-methylpropan-2-yl((2R,6S,7R,9R,13aS,14aR,16aS,Z)-2-((3,6-dimethoxyisoquinolin-1-yl)oxy)-7,9-dimethyl-14a-(((1-methylcyclopropyl)sulfonyl)carbamoyl)-5,16-dioxo-1,2,3,5,6,7,8,9,10,11,13a,14,14a,15,16,16a-hexadecahydrocyclopropa[e]pyrrolo[1,2-a][1,4]diazacyclopentadecin-6-yl)carbamate], the EC50 in experiment [1] and in experiment [2] was < 5.46 nM in each case.

In the case of `CCN(C)c1cc2cc(OC)ccc2c(O[C@@H]2C[C@H]3C(=O)N[C@]4(C(=O)NS(=O)(=O)C5(CF)CC5)C[C@H]4/C=C\CC[C@H](C)C[C@@H](C)[C@H](NC(=O)OC(C)(C)C)C(=O)N3C2)n1` [Compound 1134, tert-butyl ((2R,6S,7R,9S,13aS,14aR,16aS,Z)-2-((3-(ethyl(methyl)amino)-6-methoxyisoquinolin-1-yl)oxy)-14a-(((1-(fluoromethyl)cyclopropyl)sulfonyl)carbamoyl)-7,9-dimethyl-5,16-dioxo-1,2,3,5,6,7,8,9,10,11,13a,14,14a,15,16,16a-hexadecahydrocyclopropa[e]pyrrolo[1,2-a][1,4]diazacyclopentadecin-6-yl)carbamate], the EC50 in experiment [1] and in experiment [2] was > 87.4 nM throughout.

For the compound `CCN(C)c1cc2cc(OC)ccc2c(O[C@@H]2C[C@H]3C(=O)N[C@]4(C(=O)NS(=O)(=O)C5(CF)CC5)C[C@H]4/C=C\CC[C@@H](C)C[C@@H](C)[C@H](NC(=O)OC(C)(C)C)C(=O)N3C2)n1` [Compound 1135, tert-butyl ((2R,6S,7R,9R,13aS,14aR,16aS,Z)-2-((3-(ethyl(methyl)amino)-6-methoxyisoquinolin-1-yl)oxy)-14a-(((1-(fluoromethyl)cyclopropyl)sulfonyl)carbamoyl)-7,9-dimethyl-5,16-dioxo-1,2,3,5,6,7,8,9,10,11,13a,14,14a,15,16,16a-hexadecahydrocyclopropa[e]pyrrolo[1,2-a][1,4]diazacyclopentadecin-6-yl)carbamate], the EC50 in experiment [1] is < 5.46 nM; in experiment [2], 4.82 to 103 nM.

Consider `CCN(C)c1cc2cc(OC)ccc2c(O[C@@H]2C[C@H]3C(=O)N[C@]4(C(=O)NS(=O)(=O)C5(CF)CC5)C[C@H]4/C=C\CC[C@H](C)C[C@@H](C)[C@H](NC(=O)OC(C)(C)C(F)(F)F)C(=O)N3C2)n1` [Compound 1136, 1,1,1-trifluoro-2-methylpropan-2-yl((2R,6S,7R,9S,13aS,14aR,16aS,Z)-2-((3-(ethyl(methyl)amino)-6-methoxyisoquinolin-1-yl)oxy)-14a-(((1-(fluoromethyl)cyclopropyl)sulfonyl)carbamoyl)-7,9-dimethyl-5,16-dioxo-1,2,3,5,6,7,8,9,10,11,13a,14,14a,15,16,16a-hexadecahydrocyclopropa[e]pyrrolo[1,2-a][1,4]diazacyclopentadecin-6-yl)carbamate], for which the EC50 in experiment [1] and in experiment [2] was > 87.4 nM in each case.
